Values of other authors in patent US20250345348A1, “AMPK ACTIVATOR (CBDA) AND SGLT2 INHIBITOR FOR METABOLIC HEALTH” (SOCIETE DES PRODUITS NESTLE S.A., priority 2022, published 2025).
Like-named read-outs stand apart in the source and are kept apart here.

O=C(CCc1ccc(O)cc1)c1c(O)cc(O)cc1O[C@@H]1O[C@H](CO)[C@@H](O)[C@H](O)[C@H]1O [phlorizin, 1-(2,4-Dihydroxy-6-{[(2S,3R,4S,5S,6R)-3,4,5-trihydroxy-6-(hydroxymethyl)oxan-2-yl]oxy}phenyl)-3-(4-hydroxyphenyl)propan-1-one]
solubility (in ethanol and hot water): soluble
solubility (in ether and cold water): poorly soluble
stability in aqueous solutions (prolonged exposure to aqueous solutions): hydrolyzes to phloretin and glucose
